Measured values reported in ChEMBL document CHEMBL1201862, “PubChem BioAssay data set” (2004).
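Results reflect a 48-hour exposure of cells in 96-well plates to compound at five concentrations. GI50 marks 50% less growth.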 Calls of active or inactive are those of the source. Rule as the data show it: active = GI50 up to about 1.1 µM and inactive = higher.

Assays:
Assay in all cases: DTP human tumour cell line panel, 48 h
M19-MEL = system: M19-MEL
SNB-78 = system: SNB-78
KM-20L2 = system: KM-20L2
LXFL 529 = system: LXFL 529
DLD-1 = system: DLD-1
DMS-273 = system: DMS-273
HOP-18 = system: HOP-18
XF498 = system: XF498
RXF 631 = system: RXF 631

COCc1cc2c(s1)C(=O)C1=C(C2=O)C2(C=C(Br)C(=O)C(Br)=C2)CCN1
GI50 (M19-MEL): 1.46 µM (inactive)
GI50 (SNB-78): 7.59 µM (inactive)
GI50 (KM-20L2): 0.184 µM (active)
GI50 (LXFL 529): 2.72 µM (inactive)
GI50 (DLD-1): 6.95 µM (inactive)
GI50 (DMS-273): 2.85 µM (inactive)
GI50 (HOP-18): 15.1 µM (inactive)
GI50 (XF498): 7.41 µM (inactive)

CCCCCCCCCCCCCCC(C)CCC(=O)O (configuration not stated)
GI50 (M19-MEL): 47.2 µM (inactive)
GI50 (SNB-78): > 100 µM (inactive)
GI50 (DLD-1): > 100 µM (inactive)
GI50 (HOP-18): > 100 µM (inactive)
GI50 (XF498): 59.4 µM (inactive)

C/C(=N\NC(=S)NNC(=S)N(C)c1ccccc1)c1ccccn1
GI50 (M19-MEL): 0.547 µM (active)
GI50 (SNB-78): 8.55 µM (inactive)
GI50 (LXFL 529): 0.815 µM (active)
GI50 (DLD-1): 0.618 µM (active)
GI50 (DMS-273): 1.46 µM (inactive)
GI50 (HOP-18): 0.198 µM (active)
GI50 (XF498): 14.1 µM (inactive)

Cc1ccc(NC(=O)CC2C(=O)Nc3ccccc3[S+]2[O-])cc1C (configuration not stated)
GI50 (M19-MEL): > 100 µM (inactive)
GI50 (SNB-78): > 100 µM (inactive)
GI50 (KM-20L2): > 100 µM (inactive)
GI50 (LXFL 529): 88.3 µM (inactive)
GI50 (DLD-1): > 100 µM (inactive)
GI50 (DMS-273): 28.1 µM (inactive)
GI50 (XF498): > 100 µM (inactive)

COC(=O)C1Cc2c(n(C)c3ccccc23)C(c2ccccc2)N1 (configuration not stated)
GI50 (M19-MEL): 45.6 µM (inactive)
GI50 (SNB-78): > 100 µM (inactive)
GI50 (KM-20L2): 57.8 µM (inactive)
GI50 (LXFL 529): 33.7 µM (inactive)
GI50 (RXF 631): > 100 µM (inactive)
GI50 (DLD-1): > 10 µM (inactive)
GI50 (DMS-273): 38.8 µM (inactive)
GI50 (HOP-18): > 100 µM (inactive)

CCCNc1ncnc2c1cnn2C
GI50 (M19-MEL): > 100 µM (inactive)
GI50 (SNB-78): > 100 µM (inactive)
GI50 (KM-20L2): > 100 µM (inactive)
GI50 (DMS-273): > 100 µM (inactive)
GI50 (HOP-18): > 100 µM (inactive)
GI50 (XF498): > 100 µM (inactive)

Cn1cnnc1Sc1c([N+](=O)[O-])nc(-c2ccc([N+](=O)[O-])cc2)n1C
GI50 (M19-MEL): 17.8 µM (inactive)
GI50 (SNB-78): 18.3 µM (inactive)
GI50 (LXFL 529): 13.8 µM (inactive)
GI50 (RXF 631): 17.7 µM (inactive)
GI50 (DLD-1): 15.3 µM (inactive)
GI50 (DMS-273): 17.4 µM (inactive)
GI50 (HOP-18): 17.4 µM (inactive)
GI50 (XF498): 10.4 µM (inactive)

O=c1c2ccccc2c(=O)c2c1cc(Cl)c1[nH]c3c([nH]c12)c(Cl)cc1c(=O)c2ccccc2c(=O)c13
GI50 (M19-MEL): > 100 µM (inactive)
GI50 (SNB-78): > 100 µM (inactive)
GI50 (KM-20L2): > 100 µM (inactive)
GI50 (DLD-1): > 100 µM (inactive)
GI50 (DMS-273): > 100 µM (inactive)

CCOc1ccc(/N=C\c2ccc3cc(C)ccc3n2)cc1
GI50 (M19-MEL): 52.4 µM (inactive)
GI50 (SNB-78): > 100 µM (inactive)
GI50 (KM-20L2): 34.7 µM (inactive)
GI50 (LXFL 529): 30.5 µM (inactive)
GI50 (RXF 631): > 100 µM (inactive)
GI50 (DLD-1): 48.8 µM (inactive)
GI50 (DMS-273): 43.2 µM (inactive)
GI50 (HOP-18): > 100 µM (inactive)
GI50 (XF498): > 100 µM (inactive)

O/N=C1/C(=C/c2ccc3c(c2)OCO3)CCCC1C(NO)c1ccc2c(c1)OCO2 (configuration not stated)
GI50 (M19-MEL): 24.8 µM (inactive)
GI50 (SNB-78): 31.3 µM (inactive)
GI50 (KM-20L2): 18.2 µM (inactive)
GI50 (LXFL 529): 20 µM (inactive)
GI50 (DLD-1): 28.4 µM (inactive)
GI50 (DMS-273): 21.8 µM (inactive)
GI50 (HOP-18): 18.2 µM (inactive)
GI50 (XF498): 22.7 µM (inactive)

CC(=O)C(CN(C)Cc1ccccc1)C(c1ccccc1)c1c(O)c2ccccc2oc1=O (configuration not stated)
GI50 (M19-MEL): > 100 µM (inactive)
GI50 (SNB-78): > 100 µM (inactive)
GI50 (KM-20L2): 55.8 µM (inactive)
GI50 (LXFL 529): > 100 µM (inactive)
GI50 (DLD-1): > 100 µM (inactive)
GI50 (DMS-273): > 100 µM (inactive)

CCN(CC)[C@@H]1c2cc3c(cc2C(c2cc(OC)c(O)c(OC)c2)C2C(=O)CO[C@@H]21)OCO3 (some centres not stated)
GI50 (M19-MEL): > 100 µM (inactive)
GI50 (KM-20L2): > 100 µM (inactive)
GI50 (LXFL 529): > 100 µM (inactive)
GI50 (RXF 631): > 100 µM (inactive)
GI50 (DLD-1): > 100 µM (inactive)
GI50 (DMS-273): > 100 µM (inactive)
GI50 (XF498): > 100 µM (inactive)

CC(=O)OC1CC2C(C)(C)OC(=O)CC(OC(C)=O)[C@]2(C)C2CCC3(C)C(=CCC3[C@H]3COC(=O)C3)[C@]12C (some centres not stated)
GI50 (M19-MEL): 80.2 µM (inactive)
GI50 (SNB-78): > 100 µM (inactive)
GI50 (KM-20L2): > 100 µM (inactive)
GI50 (LXFL 529): 51.8 µM (inactive)
GI50 (DLD-1): 71.6 µM (inactive)
GI50 (DMS-273): 88.9 µM (inactive)
GI50 (XF498): > 100 µM (inactive)

CC1C[C@H](C)CC(C(O)CC2CC(=O)N(Cc3ccccc3)C(=O)C2)C1O (some centres not stated)
GI50 (M19-MEL): > 100 µM (inactive)
GI50 (SNB-78): > 100 µM (inactive)
GI50 (KM-20L2): > 100 µM (inactive)
GI50 (LXFL 529): > 100 µM (inactive)
GI50 (DLD-1): > 100 µM (inactive)
GI50 (DMS-273): > 100 µM (inactive)
GI50 (HOP-18): > 100 µM (inactive)

O=C(O)CN(c1ccccc1)S(=O)(=O)c1cccc([N+](=O)[O-])c1
GI50 (M19-MEL): > 100 µM (inactive)
GI50 (KM-20L2): > 100 µM (inactive)
GI50 (LXFL 529): > 100 µM (inactive)
GI50 (DLD-1): > 100 µM (inactive)
GI50 (DMS-273): > 100 µM (inactive)
GI50 (HOP-18): > 100 µM (inactive)
GI50 (XF498): > 100 µM (inactive)

C=C1CC[C@@H]2C(C)(C)CCC[C@@]2(C)[C@@H]1Cc1cc(O)ccc1O
GI50 (M19-MEL): 3.56 µM (inactive)
GI50 (SNB-78): 1.93 µM (inactive)
GI50 (KM-20L2): 17.3 µM (inactive)
GI50 (LXFL 529): 2.11 µM (inactive)
GI50 (DLD-1): 5.21 µM (inactive)
GI50 (DMS-273): 5.92 µM (inactive)
GI50 (HOP-18): 11.2 µM (inactive)
